Experimental data from patent US20240376163A1, “PEPTIDE FOR INHIBITING CALCINEURIN AND USE THEREOF” (Seoul National University R&DB Foundation, priority 2023, published 2024).

How the values were obtained:
tNFATC2 = assay: Confocal microscopy of nuclear-localized tNFATC2 in Jurkat T cells; type: cell-based; conditions: activated Jurkat T cells
Method: Jurkat T cells were transfected with pCAG-EGFP-tNFATC2-IRES-mCherry-peptide by electroporation. Two days later, these cells were pretreated with […] for 30 min. Afterwards, they were treated with 40 nM PMA and 1 μM ionomycin for 4 hours under culture conditions. Nuclei were stained by treating these cells with 10 μg/ml Hoechst 33342 (Invitrogen, Waltham, MA, USA) before imaging with a confocal laser scanning microscopy (Nikon, Tokyo, Japan). Colocalization analysis of […] and Hoechst was performed with ImageJ and corresponding plug-in JACoP to measure the Manders coefficient (Manders, E. M. et al., J. Cell Sci. 103, 857-862 (1992), Bolte, J. Microsc. 224, 213-232 (2006)).

calcineurin = assay: Calcineurin cellular activity assay in Jurkat T cells; type: cell-based; conditions: Jurkat T cells expressing peptide or treated with FK506
Method: Calcineurin phosphatase activity was measured in vitro using the Calcineurin phosphatase assay kit (BML-AK804, Enzo Life Sciences, Farmingdale, NY, USA). GST or GST-tagged peptides were cultured with CNA for 30 min at room temperature and then performed according to the manufacturer's instructions. Jurkat T cells were transiently transfected with CAG-HA-mCherry-peptide by electroporation endogenous calcineurin phosphatase activity. After 24 hours, the Jurkat T cells were pretreated with FK506 for 1 hour before activation with PMA and ionomycin. Thereafter, the cells were washed with TBS buffer (20 mM Tris, pH 7.2, 150 mM NaCl), resuspended with lysis buffer in a calcineurin cell activity assay kit (BML-AK816, Enzo Life Sciences), and stored on ice for 30 min. Lysate supernatants were collected by gel filtration using Desaltting Column Resin included in the kit, free phosphate was removed, and performed according to the manufacturer's instructions.

CNAβ2 = molecular target: T1, CNAβ2 (Homo sapiens, UniProt P16298); assay: Mammalian two-hybrid assay (GAL4 DBD-peptides, VP16 AD-CNAβ2, pG5-luc) in HEK293T cells; type: cell-based; conditions: HEK293T
T1 construct: expressed in transfected cells; host or cells: HEK293T
T1 sequence (P63098 2-170 partner limits assumed, other chains not shown): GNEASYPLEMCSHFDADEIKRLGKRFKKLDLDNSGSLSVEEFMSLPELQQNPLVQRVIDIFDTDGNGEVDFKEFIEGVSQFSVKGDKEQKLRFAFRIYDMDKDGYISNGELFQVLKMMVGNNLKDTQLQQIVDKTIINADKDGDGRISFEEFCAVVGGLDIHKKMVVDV
Method: (§1) To measure the transcriptional activity of NFAT, Jurkat T cells were cotransfected with GST-tagged peptides and NFAT-luc by electroporation. After 24 hours, the cells were pretreated with 0.5 μM FK506 for 1 hour and then treated with 40 nM PMA and 1 μM ionomycin for 8 hours. For mammalian two-hybrid assay, HEK293T cells were cotransfected with GAL4 DBD-tagged CABIN1, VIVIT, chimeric, and substituted peptides, VP16 activation domain-tagged CNAβ2, and pG5-luc (a luciferase reporter plasmid containing the GAL4 reaction promoter) for 24 hours. Harvested cells were lysed with luciferase assay lysis buffer (17 mM KH2PO4, 183 mM K2HPO4, pH 7.8, 0.2% [v/v] Triton X-100) and sonicated briefly. The luciferase activity against each cell lysate was measured using Infinite M200 (Tecan, Männedorf, and Switzerland). In addition, the expression level of the transfected protein was confirmed by Western blotting.

[1] = test system: NFAT transcriptional activity; assay: NFAT luciferase reporter assay in Jurkat T cells expressing GST-tagged peptides; type: cell-based; conditions: PMA and ionomycin treatment
Method: as §1

Jurkat T cells = assay: Real-time quantitative PCR of T-cell activation genes in Jurkat T cells; type: cell-based
Method: Jurkat T cells were collected by QIAzol Lysis Reagent (Qiagen) to extract total RNA. cDNA was reverse transcribed from the isolated RNA using AMV Reverse Transcriptase and random hexamers. Real-time quantitative PCR for each cDNA was performed using TB Green® Premix Ex Taq™ (TaKaRa, Kusatsu, Japan) in the CFX Connect Real-time PCR Detection System (Bio-Rad, Hercules, CA, USA), and normalized to expression of 18S rRNA or GAPDH.

His6-tagged CNA = assay: In vitro peptide competition assay; type: binding; conditions: VIVIT 15-mer and CABIN1-L-1 peptide, molar ratio 1:50 to 1:400
Method: In FIG. 4A, an in vitro peptide competition assay was performed using VIVIT 15-mer and CABIN1-L-1 peptide in a dose-dependent manner. The molar ratio of GST-tagged peptide to competing peptide ranged from 1:50 to 1:400. In FIG. 4B, a mammalian two-hybrid assay was performed using VP16 AD-CNAβ2 and GAL4 DBD-peptide in HEK293T cells treated or not-treated with 1 μM ionomycin. The pM empty vector was used as a negative control. In FIG. 4C, a calcineurin cellular activity assay was performed using Jurkat T cells expressing HA-mCherry-tagged peptides. Jurkat T cells expressing only HA-mCherry were used as negative controls, and cells treated with FK506 were used as positive controls. […] Purified GST was used as a negative control. All experiments were repeated three times, and data were expressed as mean±standard deviation. Statistical differences were determined using one-way analysis of variance. * p<0.05, NS: no statistical significance, NC: negative control.

ERK2 = molecular target: T2, ERK2 (Homo sapiens, UniProt P28482); assay: In vitro kinase assay; type: biochemical; conditions: purified GST-tagged peptide
T2 construct: purchased Proqinase GmbH (Freiburg, Germany)
T2 sequence (P28482 whole entry): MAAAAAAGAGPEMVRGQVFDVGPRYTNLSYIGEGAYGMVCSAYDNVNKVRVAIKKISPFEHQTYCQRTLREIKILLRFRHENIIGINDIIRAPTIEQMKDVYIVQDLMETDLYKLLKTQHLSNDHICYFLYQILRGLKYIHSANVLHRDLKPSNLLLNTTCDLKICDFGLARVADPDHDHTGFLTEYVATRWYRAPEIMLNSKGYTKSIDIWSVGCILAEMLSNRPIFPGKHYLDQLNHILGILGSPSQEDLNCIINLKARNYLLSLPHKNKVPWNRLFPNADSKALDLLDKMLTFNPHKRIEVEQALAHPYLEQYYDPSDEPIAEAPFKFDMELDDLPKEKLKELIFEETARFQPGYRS
Method: (§2) Purified GST-tagged peptides were used for the in vitro kinase assay using activated recombinant kinase obtained from Proqinase GmbH (Freiburg, Germany). Kinase reactions were induced in reaction buffer (50 mM HEPES-NaOH, pH 7.5, 3 mM MgCl2, 3 mM MnCl2, 3 μM sodium orthobanadate, 1 mM dithiothreitol, 50 μM unlabeled ATP, 5 μCi 32P-γ-ATP) for 1 hour at 30° C. The reaction was stopped by the addition of 5× sample buffer, and proteins were isolated using SDS-PAGE. The gels were stained with Coomassie Brilliant Blue, dried, and developed on X-ray film.

JNK1 = molecular target: T3, JNK1 (Homo sapiens, UniProt P45983); assay: In vitro kinase assay; type: biochemical; conditions: purified GST-tagged peptide
T3 construct: purchased Proqinase GmbH (Freiburg, Germany)
T3 sequence (P45983 whole entry): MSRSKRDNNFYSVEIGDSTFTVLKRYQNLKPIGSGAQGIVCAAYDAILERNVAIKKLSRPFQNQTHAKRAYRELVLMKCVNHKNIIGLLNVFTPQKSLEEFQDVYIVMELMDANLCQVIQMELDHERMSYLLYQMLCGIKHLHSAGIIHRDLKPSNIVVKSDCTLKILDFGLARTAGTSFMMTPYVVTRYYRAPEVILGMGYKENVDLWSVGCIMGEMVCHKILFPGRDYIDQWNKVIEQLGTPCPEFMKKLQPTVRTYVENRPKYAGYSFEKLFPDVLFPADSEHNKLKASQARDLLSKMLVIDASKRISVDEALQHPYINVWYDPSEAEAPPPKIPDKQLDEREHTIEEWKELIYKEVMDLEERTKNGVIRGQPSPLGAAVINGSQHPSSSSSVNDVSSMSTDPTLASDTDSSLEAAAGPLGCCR
Method: as §2

p38a = p38a (Homo sapiens, UniProt Q16539); assay: In vitro kinase assay; type: biochemical; conditions: purified GST-tagged peptide
Sequence of p38a (Q16539 whole entry): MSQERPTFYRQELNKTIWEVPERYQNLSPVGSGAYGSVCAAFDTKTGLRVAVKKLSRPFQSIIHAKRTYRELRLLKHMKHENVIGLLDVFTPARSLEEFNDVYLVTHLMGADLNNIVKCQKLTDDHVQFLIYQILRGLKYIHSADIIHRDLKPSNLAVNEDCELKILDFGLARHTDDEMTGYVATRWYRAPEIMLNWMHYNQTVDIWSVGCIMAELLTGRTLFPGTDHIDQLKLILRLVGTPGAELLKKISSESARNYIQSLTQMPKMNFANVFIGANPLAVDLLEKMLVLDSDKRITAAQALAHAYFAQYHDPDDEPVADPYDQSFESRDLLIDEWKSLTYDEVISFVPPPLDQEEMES
Method: as §2

Row | Molecule | proportion of nuclear-localized tNFATC2 (tNFATC2) | calcineurin phosphatase activity in cells (calcineurin) | effect of ionomycin treatment on interaction with CNA (CNAβ2; 1 μM ionomycin) | binding to CNA (CNAβ2; GAL4 DBD-tagged peptides, VP16 activation domain-tagged CNA) | NFAT transcriptional activity (luciferase activity) [1] | inhibitory effect on NFAT luciferase activity relative to VIVIT peptide [1] | RNA levels of T-cell activation genes by qRT-PCR (Jurkat T cells) | competition for CNA binding (His6-tagged CNA) | phosphorylation by ERK2 (ERK2) | phosphorylation by JNK1 (JNK1) | phosphorylation by p38a (p38a)
1 | C=CC[C@@H]1/C=C(\C)C[C@H](C)C[C@H](OC)[C@H]2O[C@@](O)(C(=O)C(=O)N3CCCC[C@H]3C(=O)O[C@H](/C(C)=C/[C@@H]3CC[C@@H](O)[C@H](OC)C3)[C@H](C)[C@@H](O)CC1=O)[C@H](C)C[C@@H]2OC [FK506, Tacrolimus, reference compound] | lowest | reduced the phosphatase activity of CNA | – | – | – | – | – | – | – | – | –
2 | PEITVTPPTP [CABIN1-L-1-2] | slightly higher | – | did not affect the interaction | still bound to CNA | inhibited luciferase activity compared to the negative control | approximately 4 times | reduced RNA levels of these genes more effectively than VIVIT peptides | dose-dependently interfered with the interaction between GST-tagged VIVIT peptide and His6-tagged CNA | phosphorylate | phosphorylate | phosphorylate
